Source: PubChem BioAssay (NCI)
Where “and” joins values, the source holds several entries; their conditions need not be identical. Equal entries are not always repeated.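 These data come from cells grown in 96-well plates and exposed to compound for 48 hours at five concentrations. The concentration for 50% growth inhibition is given as GI50. TGI denotes the concentration required for complete inhibition of growth.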

Legend:
Assay in all cases: NCI anticancer screen, dose series, 48 h
HCT-15 colon = system: HCT-15 colon
HOP-62 NSCLC = system: HOP-62 NSCLC
HS 578T breast = system: HS 578T breast
IGROV1 ovarian = system: IGROV1 ovarian
K-562 leukemia = system: K-562 leukemia
M14 melanoma = system: M14 melanoma
NCI-H522 lung = system: NCI-H522 lung
OVCAR-5 ovarian = system: OVCAR-5 ovarian
OVCAR-8 ovarian = system: OVCAR-8 ovarian
UACC-62 melanoma = system: UACC-62 melanoma

Row | Compound | GI50 (HCT-15 colon) | TGI (HCT-15 colon) | GI50 (HOP-62 NSCLC) | TGI (HOP-62 NSCLC) | GI50 (HS 578T breast) | TGI (HS 578T breast) | GI50 (IGROV1 ovarian) | TGI (IGROV1 ovarian) | GI50 (K-562 leukemia) | TGI (K-562 leukemia) | GI50 (M14 melanoma) | TGI (M14 melanoma) | GI50 (NCI-H522 lung) | TGI (NCI-H522 lung) | GI50 (OVCAR-5 ovarian) | TGI (OVCAR-5 ovarian) | GI50 (OVCAR-8 ovarian) | TGI (OVCAR-8 ovarian) | GI50 (UACC-62 melanoma) | TGI (UACC-62 melanoma)
1 | COc1cccc2c(=O)c3c(sc12)c(NCCN(C)C)nc1ccccc13 | 1.06 µM | 2.41 µM | 1.2 µM | 2.66 µM | 1.69 µM | 4.81 µM | 1.19 µM | 2.7 µM | 1.02 µM | 2.8 µM | 1.56 µM | 2.94 µM | 1.36 µM | 3.02 µM | 1.65 µM | 3.3 µM | 1.26 µM | 2.93 µM | 1.72 µM | 3.24 µM
2 | Cc1nn(-c2nc3ccccc3[nH]2)c2c1C(c1ccc3c(c1)OCO3)CC(=O)N2 (configuration not stated) | 3.05 µM | > 100 µM | 2.38 µM | 5.21 µM | 2.93 µM | 13.5 µM | 2.36 µM | 4.57 µM | 3.58 µM | > 100 µM | 2.31 µM | 5.98 µM | 2.22 µM | 5.41 µM | 5.43 µM | > 100 µM | 3.51 µM | > 100 µM | 1.66 µM | 3.13 µM
3 | Clc1ccc2c(c1)-c1ccccc1C1=NCCN12 | 2.71 µM | 9.62 µM | 1.98 µM | 6.02 µM | 2.92 µM | 11.8 µM | 2.14 µM | 5.36 µM | 2.2 µM | 7.61 µM | 1.56 µM | 3.07 µM | 1.52 µM | 3.48 µM | 2.68 µM | 13.4 µM | 1.22 µM | 5.4 µM | 1.6 µM | 3.48 µM
4 | COc1ccc(/C=C/C(=O)c2cc3c(N)c(C(=O)Nc4ccccc4)sc3nc2C)cc1 | 0.205 µM | 8.53 µM | 0.252 µM | > 22.5 µM | 0.153 µM | > 50 µM | 0.252 µM | > 50 µM | 0.14 µM | > 50 µM | 0.0907 µM | > 50 µM | 0.113 µM | 4.56 µM | 0.385 µM | > 50 µM | 0.277 µM | > 50 µM | 0.119 µM | > 50 µM
5 | CS(=O)(=O)Nc1cc(-c2ccc3ncnc(Nc4ccc5c(cnn5Cc5ccccc5F)c4)c3c2)cnc1Cl | 3.28 µM | 55 µM | 0.457 µM | > 100 µM | 0.249 µM | 1.84 µM | 0.575 µM | 4.31 µM | 2.27 µM | > 100 µM | 2.66 µM | 15.6 µM | 1.18 µM | 8.03 µM | 2.22 µM | > 100 µM | 2.72 µM | > 100 µM | 1.47 µM | 5.37 µM
6 | Clc1nc(Cl)c(Cc2ccccc2)c(Cl)n1 | – | 85 µM | – | 20.4 µM | – | 19.9 µM | – | 46.7 µM | – | > 100 µM | – | 8.38 µM | – | 3.04 µM | – | 38.2 µM | – | 19 µM | – | 16.9 µM
7 | CNc1nc(N(C)C)nc(N(C)C)n1 | > 100 µM and 936 µM | > 100 µM and 2770 µM | > 100 µM and 970 µM | > 100 µM and 1890 µM | – | 4450 µM | > 100 µM and 1100 µM | > 100 µM and 2640 µM | > 100 µM and 831 µM | > 100 µM and 3230 µM | – | 2600 µM | > 100 µM and 874 µM | > 100 µM and 3370 µM | > 100 µM and 909 µM | > 100 µM and 3960 µM | > 100 µM and 1780 µM | > 100 µM and 2950 µM | > 100 µM and 952 µM | > 100 µM and 3640 µM
8 | N#CC1=C(N)Oc2c(sc3c(F)cccc23)C1c1ccc(F)cc1 (configuration not stated) | 0.421 µM | 12 µM | 0.76 µM | 19.2 µM | 0.414 µM | 11.4 µM | 0.621 µM | 14.7 µM | 0.354 µM | 18.4 µM | 0.41 µM | 6.41 µM | 0.473 µM | 10.8 µM | 2.95 µM | 14.6 µM | 1.61 µM | 22.5 µM | 0.551 µM | 14.9 µM
9 | Cc1ccc(S(=O)(=O)Nc2nc3ccccc3nc2Nc2ccc3nsnc3c2)cc1 | 3.61 µM and 3.84 µM | > 100 µM | 5.36 µM and 5.68 µM | 35.6 µM and > 100 µM | 5.62 µM and 4.21 µM | > 100 µM | 4.16 µM and 2.7 µM | > 100 µM and 59.4 µM | 3.7 µM and 2.82 µM | > 100 µM | 4.05 µM and 4.35 µM | > 100 µM | 3.59 µM and 1.5 µM | 31.1 µM and 4.47 µM | 17.4 µM and > 81.2 µM | > 100 µM | 4.3 µM and 4.19 µM | > 100 µM | 1.81 µM and 2.02 µM | 10.4 µM and > 28.2 µM
10 | O=C(/C=C/c1ccc(C(F)(F)F)cc1)c1ccc(Nc2nc(NCCO)nc(N3CCOCC3)n2)cc1 | 1.89 µM | 4.82 µM | 2.22 µM | 6.57 µM | 2.61 µM | – | 2 µM | 4.42 µM | 2.33 µM | > 100 µM | 2.01 µM | 4.28 µM | 1.85 µM | 5.04 µM | 1.74 µM | 3.97 µM | 3.25 µM | 12.4 µM | 2.76 µM | 8.87 µM
11 | CN1CCn2c(c(Sc3ccc(C(=O)NO)cc3)c3ccccc32)C1=O | 2.73 µM | 14.3 µM | 1.88 µM | 3.87 µM | 2.41 µM | > 29 µM | 1.82 µM | 3.85 µM | 3.77 µM | > 100 µM | 1.77 µM | 3.99 µM | 1.13 µM | 2.66 µM | 2 µM | 5.67 µM | 1.92 µM | 6.71 µM | 1.44 µM | 3.24 µM
12 | O=P1(O)c2ccccc2Nc2cc(C(F)(F)F)ccc21 | – | > 100 µM | – | > 100 µM | – | > 100 µM | – | > 100 µM | – | > 100 µM | – | > 100 µM | – | > 100 µM | – | > 100 µM | – | > 100 µM | – | > 100 µM
13 | C=C1CC[C@@H]2[C@](C)(COC(C)=O)[C@H](OC(C)=O)CC[C@@]2(C)[C@@H]1C/C=C1/C(=O)OC[C@H]1OC(C)=O | 1.58 µM | 4.33 µM | 4.4 µM | 21.4 µM | 12.3 µM | 55.3 µM | 2.41 µM | 6.23 µM | 2.63 µM | 32.1 µM | 2.22 µM | 6.48 µM | 1.52 µM | 3.63 µM | 1.93 µM | 3.92 µM | 3.38 µM | 22 µM | 3.37 µM | 13.5 µM
14 | COc1cc(-c2oc3c(OC)c(O)c(OC)c(O)c3c(=O)c2OC)ccc1O | – | > 100 µM | – | 61.4 µM | – | 40.1 µM | – | 65.9 µM | – | > 100 µM | – | 96 µM | – | 66.9 µM | – | > 100 µM | – | > 100 µM | – | > 100 µM
15 | COC(=O)[C@@]1(O)C[C@H]2O[C@]1(C)n1c3ccccc3c3c4c(c5c6ccccc6n2c5c31)C(=O)NC4 | 0.0706 µM | 2.5 µM | 0.169 µM | 1.81 µM | 0.248 µM | 2.06 µM | 0.17 µM | 3.28 µM | 0.0397 µM | 1.28 µM | 0.0355 µM | 1.15 µM | 0.0616 µM | 1.71 µM | 0.21 µM | 8.12 µM | 0.589 µM | 4.08 µM | 0.132 µM | 1.55 µM
16 | CCOC(=O)C#Cc1c(CC(=O)OCC)nnn1[C@H]1O[C@@H](CO)[C@@H]2OC(C)(C)O[C@@H]21 | 2.52 µM | 7.02 µM | 18.2 µM | 34.2 µM | 25.9 µM | 72.2 µM | 16.1 µM | 36.6 µM | 3 µM | 11.1 µM | 3.58 µM | 12.8 µM | 2.12 µM | 4.09 µM | 12.1 µM | 27.3 µM | 5.48 µM | 18.2 µM | 1.84 µM | 4.14 µM
17 | O=C1/C(=C/c2ccc(Cl)cc2)COc2ccc(O)c(O)c21 | 0.356 µM | 4.18 µM | – | – | 1.8 µM | 7.02 µM | 0.438 µM | 2.16 µM | 0.321 µM | > 100 µM | 1.92 µM | 4.77 µM | 0.182 µM | 0.426 µM | 1.6 µM | 3.21 µM | 1.11 µM | 12.8 µM | 1.27 µM | 2.63 µM
18 | CC(C)C[C@@H]1NC(=O)[C@@H]2CCCN2C(=O)[C@@H]2CCCN2C(=O)[C@H](CC(C)C)NC(=O)[C@H](CO)NC(=O)[C@H](CCCCN)NC(=O)[C@H]([C@H](C)O)NC(=O)[C@@H]2CCCC[C@@H](NC1=O)C(=O)N[C@@H](Cc1ccccc1)C(=O)N1CCC[C@H]1C(=O)N[C@@H](CC(=O)O)C(=O)NCC(=O)N[C@@H](CCCN=C(N)N)C(=O)N2 | > 50 µM | > 50 µM | > 50 µM | > 50 µM | > 50 µM | > 50 µM | > 50 µM | > 50 µM | > 50 µM | > 50 µM | – | – | > 50 µM | > 50 µM | > 50 µM | > 50 µM | > 50 µM | > 50 µM | > 50 µM | > 50 µM
19 | C[C@@H]1C[C@@]2(O[C@@H]2C)C(=O)O[C@@H]2CCN3CC=C(COC(=O)[C@]1(C)O)[C@H]23 | – | > 100 µM | – | – | – | > 100 µM | – | > 100 µM | – | > 100 µM | – | > 100 µM | – | > 100 µM | – | > 100 µM | – | > 100 µM | – | > 100 µM
